Results reported in patent publication US4902700A, “Thiazole derivative and leukotriene antagonist containing the same as the effective ingredients” (Mitsubishi Kasei Corporation, priority 1985, dated 1990).
Where a name gives a salt, the structure may show the parent alone.

system: SRS; assay: SRS antagonistic action in vitro (isolated guinea pig ileum shrinkage); details: conc. attenuating control shrinkage to 50% (IC50), Tables 2-1 to 2-4, head prints no unit, read-out: Anti-SRS action [minimum effective conc.]
Protocol: The ileum end portion of a male Hartley-strain guinea pig weighing 200-450 g was extirpated and after washing its lumen, the ileum was mounted within 5 ml of a tissue bath containing a Tylord solution comprising the following components. […] For removing shrinkage with hystamine and acetylcholine, 10^-7 g/ml of mepylamin and 5×10^-8 g/ml of atropin were added to the above buffer. […] The ileum was loaded passively with 0.5 g of tension and the ileum shrinkage reaction to SRS extracted from guinea pig lung was obtained. The persistent shrinkage height by one unit of SRS (corresponding to 5 ng of hystamine) was used as control.

Structure (SMILES)	IC50 [M]
CC(C)(C)c1csc(/C=C/c2cccc(NC(=O)CCCC(=O)O)c2)n1 [compound 298]	5e-05
CCc1nc(/C=C/c2cccc(NC(=O)c3cc(C)c(C)cc3C(=O)O)c2)sc1C [compound 328]	5e-09
Cc1ccc2sc(/C=C/c3cccc(NC(=O)c4ccccc4C(=O)O)c3)nc2c1 [compound 231]	5e-09
Cc1csc(/C=C/c2cccc(NC(=O)/C=C\C(=O)O)c2)n1 [compound 54]	5e-07
O=C(O)[C@H]1CCCC[C@H]1C(=O)Nc1cccc(/C=C/c2nc3ccccc3s2)c1 (relative stereo) [compound 3]	5e-08
CCCc1nc(/C=C/c2cccc(NC(=O)/C=C\C(=O)O)c2)sc1CC [compound 332]	1e-07
COC(=O)CCC(=O)Nc1cccc(/C=C/c2nc3ccccc3s2)c1 [compound 192]	5e-07
O=C(O)/C=C/C(=O)Nc1cccc(/C=C/c2nc3ccccc3s2)c1 [compound 167]	2e-07
CC(C)c1csc(/C=C/c2cccc(NC(=O)CC(C(=O)O)c3ccccc3)c2)n1 (stereo not shown) [compound 307]	2e-09
O=C(O)/C=C\C(=O)Nc1cccc(/C=C/c2nc(-c3ccccc3)cs2)c1 [compound 34]	2e-08
CCCCC(CC(=O)Nc1cccc(/C=C/c2nc3ccccc3s2)c1)C(=O)O (stereo not shown) [compound 227]	5e-08
Cc1cc(C(=O)O)c(C(=O)Nc2cccc(/C=C/c3nc(-c4ccccc4)cs3)c2)cc1C [compound 253]	5e-08
O=C(O)C(=O)Nc1cccc(/C=C/c2nc3ccccc3s2)c1 [compound 168]	1e-07
O=C(O)c1ccccc1C(=O)Nc1cccc(/C=C/c2nc3ccccc3s2)c1 [compound 2]	5e-09
CCCCCCCc1csc(/C=C/c2cccc(NC(=O)c3ccccc3C(=O)O)c2)n1 [compound 291]	1e-07
CCCCCCc1csc(/C=C/c2cccc(NC(=O)c3ccccc3C(=O)O)c2)n1 [compound 287]	2e-05

same assay, conditions: conc. attenuating control shrinkage to 50% (IC50), Tables 2-6 to 2-11 and Table 3, read-out: Anti-SRS action [minimum effective conc. (M)]

Structure (SMILES)	IC50 [M]
O=C(O)/C=C\C(=O)Nc1cccc(OCc2nc3ccccc3s2)c1 [compound 368]	1e-07
O=C(O)CCCNc1cccc(CCc2nc3ccccc3s2)c1 [compound 376]	5e-07
O=C(O)/C=C\C(=O)Nc1cccc(NCc2nc3ccccc3s2)c1 [compound 150]	2e-07
Cc1nc(C=Cc2cccc(NCCCC(=O)O)c2)sc1C [compound 377]	2e-07
O=C(CC1(C(=O)O)CCCCC1)Nc1cccc(CCc2nc3ccccc3s2)c1 [compound 358]	1e-08
CCc1csc(C=Cc2cccc(NCCCC(=O)O)c2)n1 [compound 387]	1e-08
O=C(O)/C=C\C(=O)Nc1cccc(COCc2nc3ccccc3s2)c1 [compound 369]	1e-05
O=C(O)[C@H]1CCCC[C@H]1C(=O)Nc1cccc(/C=C/c2nc3ccccc3s2)c1 (relative stereo) [compound 414, 2-[trans-3-(cis-2-carboxycyclohexanoyl)aminostyryl]benzothiazole N-methyl-D-glucamine salt]	1e-06
C(=C\c1nc2ccccc2s1)/c1cccc(NCCCc2nnn[nH]2)c1 [compound 424, 2-[trans-3-(3-(5-tetrazolyl)propylamino)styryl]benzothiazole]	5e-07
O=C(O)CCNc1cccc(/C=C/c2nc3ccccc3s2)c1 [compound 426, 2-[trans-3-(2-carboxyethylamino)styryl]benzothiazole sodium salt]	2e-07
O=C(CCCO)Nc1cccc(/C=C/c2nc3ccccc3s2)c1 [compound 422, 2-[trans-3-(4-hydroxybutanoylamino)styryl]benzothiazole]	1e-06
CCOC(=O)CCCNc1cccc(/C=C/c2nc3ccccc3s2)c1 [compound 199, 2-[trans-3-(3-ethoxycarbonylpropyl)aminostyryl]benzothiazole]	2e-07
CCCCc1csc(C=Cc2cccc(NCCCC(=O)O)c2)n1 [compound 389]	1e-07
O=C(O)CCCCCc1cccc(/C=C/c2nc3ccccc3s2)c1 [compound 411]	1e-05
O=C(O)/C=C\C(=O)Nc1cccc(/C=C/c2nc3ccccc3s2)c1 [compound 213, 2-[trans-3-(cis-3-carboxypropenamide)styryl]benzothiazole sodium salt]	5e-08
CC(C)CCOC(=O)/C=C\C(=O)Nc1cccc(/C=C/c2nc3ccccc3s2)c1 [compound 189, 2-[trans-3-(cis-3-isoamyloxycarbonylpropenamide)styryl]benzothiazole]	1e-06
OCCCCOc1cccc(/C=C/c2nc3ccccc3s2)c1 [compound 423, 2-[trans-3-(4-hydroxybutoxy)styryl]benzothiazole]	1e-05
O=C(O)CCCCNc1cccc(/C=C/c2nc3ccccc3s2)c1 [compound 398]	2e-07

system: LTD4; assay: LTD4 antagonistic action in vivo (airway resistance increase, Konzett-Roessler); parameters: species or system guinea pig; details: Cavia porcellus, read-out: Airway resistance increase inhibition

Structure (SMILES)	inhibition in vivo at 3 mg/kg [%]
O=C([O-])CCCNc1cccc(/C=C/c2nc3ccccc3s2)c1.[Na+] [sodium salt]	55

same assay, conditions: Cavia porcellus; intraduodenal, 3 mg/kg; LTD4 0.1-1.0 μg/kg i.v.; read-out: Airway resistance increase inhibition

Structure (SMILES)	inhibition in vivo at 3 mg/kg [%]
O=C(CC1(C(=O)O)CCCCC1)Nc1cccc(/C=C/c2nc3ccccc3s2)c1 [compound 223]	87
CCCCC(CC(=O)Nc1cccc(/C=C/c2nc3ccccc3s2)c1)C(=O)O (stereo not shown) [compound 227]	71

same assay, conditions: Cavia porcellus; intraduodenal, 10 mg/kg; LTD4 0.1-1.0 μg/kg i.v.

Structure (SMILES)	inhibition in vivo at 10 mg/kg [%]
CC(C)(C)c1csc(/C=C/c2cccc(NC(=O)CCC(=O)O)c2)n1 [compound 297]	62
CCCc1csc(/C=C/c2cccc(NC(=O)c3ccccc3C(=O)O)c2)n1 [compound 272]	37

same assay, conditions: Cavia porcellus; intraduodenal, 30 mg/kg; LTD4 0.1-1.0 μg/kg i.v.

Structure (SMILES)	inhibition in vivo at 30 mg/kg [%]
O=C(O)/C=C\C(=O)Nc1cccc(CCc2nc3ccccc3s2)c1 [compound 353]	79
O=C(O)/C=C\C(=O)Nc1cccc(/C=C/c2nc3ccccc3s2)c1 [compound 213, 2-[trans-3-(cis-3-carboxypropenamide)styryl]benzothiazole sodium salt]	51

system: not listed separately; assay: Acute toxicity test, oral; details: mouse, in vivo, male ddy mice, 1% tragacanth suspension, 7 days
Protocol: With 4 to 5 ddy-strain male mice of 6 weeks old as one group, the compound of the present invention was orally administered as a suspension in 1% tragacanth solution, and observation was conducted for 7 days and the number of dead mice was examined to obtain the results shown in Table 5.

Structure (SMILES)	LD50 at 168 h [mg/kg]
CC(C)c1csc(/C=C/c2cccc(NC(=O)c3ccccc3C(=O)O)c2)n1 [compound 300]	1000 to 2000
CC(C)c1csc(/C=C/c2cccc(NC(=O)CCCC(=O)O)c2)n1 [compound 303]	2000
Cc1nc(/C=C/c2cccc(NC(=O)[C@H]3CC=CC[C@H]3C(=O)O)c2)sc1C (relative stereo) [compound 317]	1030
Cc1ccc2sc(/C=C/c3cccc(NC(=O)[C@@H]4CCCC[C@@H]4C(=O)O)c3)nc2c1 (relative stereo) [compound 232]	3000
Cc1nc(/C=C/c2cccc(NC(=O)/C=C\C(=O)O)c2)sc1C [compound 313]	1560
O=C(O)[C@H]1CC=CC[C@H]1C(=O)Nc1cccc(/C=C/c2nc(-c3ccccc3)cs2)c1 (relative stereo) [compound 249]	1000 to 2000
CCc1nc(/C=C/c2cccc(NC(=O)CCC(=O)O)c2)sc1C [compound 325]	2000
CCCCCc1csc(/C=C/c2cccc(NC(=O)c3ccccc3C(=O)O)c2)n1 [compound 281]	> 3000
O=C(Nc1cccc(CCc2nc3ccccc3s2)c1)[C@H]1CCCC[C@H]1C(=O)O (relative stereo) [compound 355]	1930
O=C(O)[C@H]1CCCC[C@H]1C(=O)Nc1cccc(/C=C/c2nc3ccccc3s2)c1 (relative stereo) [compound 216]	> 3000
O=C(O)[C@H]1CCCC[C@H]1C(=O)Nc1cccc(/C=C/c2nc(-c3ccccc3)cs2)c1 (relative stereo) [compound 248]	> 3000
O=C(O)[C@@H]1CCCC[C@H]1C(=O)Nc1cccc(/C=C/c2nc3ccccc3s2)c1 (relative stereo) [compound 418]	< 3000
CCc1nc(/C=C/c2cccc(NC(=O)[C@H]3CCCC[C@H]3C(=O)O)c2)sc1C (relative stereo) [compound 324]	1380
Cc1nc(/C=C/c2cccc(NC(=O)c3ccccc3C(=O)O)c2)sc1C [compound 314]	2000 to 3000
O=C(O)/C=C\C(=O)Nc1cccc(CCc2nc3ccccc3s2)c1 [compound 353]	3310
O=C(O)[C@H]1CCCC[C@H]1C(=O)Nc1cccc(/C=C/c2nc3cc(Cl)ccc3s2)c1 (relative stereo) [compound 26]	> 3000
CCc1nc(C=Cc2cccc(NCCCC(=O)O)c2)sc1C [compound 382]	1930
O=C(O)/C=C\C(=O)Nc1cccc(/C=C/c2nc3ccccc3s2)c1 [compound 213, 2-[trans-3-(cis-3-carboxypropenamide)styryl]benzothiazole sodium salt]	> 3000
O=C(O)c1ccccc1C(=O)Nc1cccc(/C=C/c2nc(-c3ccccc3)cs2)c1 [compound 247]	> 3000
O=C([O-])CCCNc1cccc(/C=C/c2nc3ccccc3s2)c1.[Na+]	2000 to 3000
CCc1nc(/C=C/c2cccc(NC(=O)CCCC(=O)O)c2)sc1C [compound 326]	< 3000
Cc1nc(/C=C/c2cccc(NC(=O)[C@H]3CCCC[C@H]3C(=O)O)c2)sc1C (relative stereo) [compound 315]	1000 to 2000
O=C(O)c1ccccc1C(=O)Nc1cccc(/C=C/c2nc3ccccc3s2)c1 [compound 2]	> 3000
